From EP2135611A1, “Pregn-5-en-20-yne-3,7,17-triol derivatives for use in therapy” (Hollis-Eden Pharmaceuticals Inc., priority 2001, dated 2002)

How the values were obtained:
Distal colitis [1] = assay: TNBS-induced distal colitis; format: in vivo, male Sprague Dawley rats; conditions: for frequency of moderate to severe lesions and their severity compared with negative control (vehicle) and reference control: based on occurrence at multiple colonic levels
Experimental: In another protocol formula 1 compounds were used in a similar animal model. Groups of 10 male Sprague Dawley rats (250-300 grams) were fasted for 24 hours before 2,4,6-trinitrobenzene sulfonic acid (TNBS) or saline challenge. This model presents a severe challenge to the animal's immune system. On Day 0, the rats were lightly anesthetized and a catheter inserted rectally into the colon such that the tip was 8 cm proximal to the anus. Distal colitis was induced by intra-colonic instillation of 0.5 mL of an ethanolic solution of TNBS (60 mg/mL ethanol 50% in water). The test substance, 7-oxodehydroepiandrosterone 20 mg/mL in vehicle or vehicle control was administered by subcutaneous injection (0.1 mL/injection) once a day for 6 days, the first dose being given 30 minutes after TNBS challenge. Sulfasalazine (30 mg/mL in 2% Tween 80 in distilled water) or vehicle control was administered orally (PO) once a day (10mL/kg/day) for 7 days, the first two doses beginning 24 hours and 2 hours before DNBS challenge. Signs of diarrhea were recorded daily by examining the anal area. Animals were fasted for 24 hours prior to sacrifice on day 14 and the colon was removed and weighed. After gross observations of colonic tissues, 3 samples were taken from regions approximately 1, 3, and 8 cm proximal to the anus. If gross ulcers or inflammation were present, at least one sample was taken from the affected region. Before removal of the colon, signs of adhesion between the colon and other organs were recorded. […] Body weight, colon-to-body-weight ratio, and damage scores were assessed. Visible damage was scored on a 1-5 scale as follows: 0 = No damage; 1 = Localized hyperemia but no ulcers; 2= linear ulcers with no significant inflammation; 3 = Linear ulcers with inflammation at one site; 4 = Two or more sites of ulceration and/or inflammation; 5 = Two or more major sites of ulceration and inflammation or one major site of ulceration and inflammation extending more than 1 cm along the length of the colon. […]

Distal colitis [2] = assay: DNBS-induced distal colitis (inflammatory bowel disease model); format: in vivo, male Wistar rats; conditions: for Adhesions between the colon and other organs / Colonic ulceration: observed at sacrifice day 7 or day 8, dosing as for each substance; for diarrhea: recorded daily, dosing as for each substance (AET: 2 mg); for Moderate acute inflammation, number of animals / Severe acute inflammation, number of animals: measured 7 days after DNBS challenge; for Moderate acute inflammation, number of animals / Severe acute inflammation, number of animals / Severe chronic inflammation, number of animals: groups of 10; for Severe chronic inflammation, number of animals: measured 14 days after DNBS challenge
[3] = system: Experimental allergic encephalomyelitis (EAE); assay: Experimental allergic encephalomyelitis induced with PLP-139-151 peptide/CFA; format: in vivo, Female SJL mice; conditions: for onset of EAE: 3.0 mg s.c. daily for 33 days starting 7 days before peptide; for peak clinical score: reduced from 5.2 ± 0.6; for PLP-139-151 specific T cell proliferation responses: T cells from treated mice; for numbers of TNF-α producing cells in the CNS: treated mice
Experimental: Example 50. Treatment of neurodegenerative conditions. Experimental allergic encephalomyelitis (EAE), is demyelinating disease of the central nervous system with many pathological and clinical similarities with multiple sclerosis (MS). EAE is thus a recognized animal model for human autoimmune conditions such as MS. Formula 1 compounds 16α-fluoroandrost-5-ene-17-one, 3β,7β,17β,-trihydroxyandrost-5-ene and 16α-bromoepiandrosterone were tested for their capacity to delay the onset of EAE or to reduce its symptoms. Female SJL mice (5 animals per group) were immunized with 150 to 200 µg of PLP-139-151 peptide/CFA to induce EAE. Starting 7 days before injection of the peptide, the animals were given daily injections (s.c.) of the compounds (3.0 mg) in 0.1 mL vehicle, or vehicle alone for 33 days. The vehicle consisted of a suspension of the formula 1 compound in saline and carboxymethylcellulose. […] A lower dose (0.3 mg/mouse) or other routes (p.o.) of administration had less effect. […] These compounds limited the production of autoimmune Th-1 associated cytokines, which is consistent with restoration of a more normal Th-1/Th-2 immune balance and/or with reduction of inflammation in this model.

[4] = system: delayed type hypersensitivity (DTH); assay: Delayed type hypersensitivity to oxazolone (ear thickness); format: in vivo, female BALB/cByJ mice; conditions: for differential ear thickness: 24 hours after oxazolone challenge, vehicle alone 0.225 mm
[5] = s.c. 20 mg/mL formulation once a day, first dose 30 minutes after DNBS, relative to vehicle-treated group / controls
[6] = day 7 (acute inflammation) after DNBS challenge
[7] = day 14 after DNBS challenge (chronic inflammation)

**Q.** Which results are given for `C[C@]12CC[C@H](O)CC1=CC(=O)[C@@H]1[C@@H]2CC[C@]2(C)C(=O)CC[C@@H]12` [7-oxodehydroepiandrosterone, 3β-hydroxyandrost-5-ene-7,17-dione]?
**A.** effect on inflammation (histopathological data) (Distal colitis [1]; 20 mg/mL, 0.1 mL s.c. once a day for 6 days): exacerbated the inflammation; decrease of net colon-to-body weight ratio (Distal colitis [2]; 0.1 mL s.c. of 2 mg/mL formulation once a day for 6 days, first dose 30 minutes after DNBS, relative to vehicle-treated group): 19%; Adhesions between the colon and other organs (Distal colitis [2]): absent in all three tested animals; Colonic ulceration (Distal colitis [2]): 1/3; diarrhea (Distal colitis [2]): All animals had diarrhea; decrease of net colon-to-body weight ratio (Distal colitis [2]; [5]): 14%

**Q.** `C[C@]12CCCCC1=CC[C@@H]1[C@@H]2CC[C@]2(C)C(=O)[C@H](F)C[C@@H]12` [16α-fluoroandrost-5-ene-17-one] was tested. Which “reduction of cumulative disease index” value ([3]; 3.0 mg s.c. daily for 33 days) did it give?
**A.** > 60%

**Q.** What about the relapses ([3]; 3.0 mg s.c. daily for 33 days) of the same compound?
**A.** prevented or significantly attenuated

**Q.** What about the “onset of EAE” value [3] of the same compound?
**A.** significantly delayed

**Q.** And the peak clinical score ([3]; 3.0 mg s.c. daily for 33 days)?
**A.** 2.8 ± 1.8

**Q.** What about the “PLP-139-151 specific T cell proliferation responses” value [3] of the same compound?
**A.** significantly reduced

**Q.** And the “numbers of TNF-α producing cells in the CNS” value [3]?
**A.** reduced numbers

**Q.** `C[C@]12CC[C@H]3[C@@H]([C@@H](O)C=C4C[C@@H](O)CC[C@@]43C)[C@@H]1CC[C@@H]2O` [AET, 3β,7β,17β-trihydroxyandrost-5-ene] was tested. Which “reduction of cumulative disease index” value ([3]; 3.0 mg s.c. daily for 33 days) did it give?
**A.** > 60%

**Q.** What about the relapses ([3]; 3.0 mg s.c. daily for 33 days) of the same compound?
**A.** prevented or significantly attenuated

**Q.** What about the “onset of EAE” value [3] of the same compound?
**A.** significantly delayed

**Q.** What about the peak clinical score ([3]; 3.0 mg s.c. daily for 33 days) of the same compound?
**A.** 2.8 ± 1.8

**Q.** And the “PLP-139-151 specific T cell proliferation responses” value [3]?
**A.** significantly reduced

**Q.** What about the “numbers of TNF-α producing cells in the CNS” value [3] of the same compound?
**A.** reduced numbers

**Q.** What about the “animals with colonic ulcerations relative to untreated animals” value (Distal colitis [2]; 2 mg, N=9, pooled data from two studies) of the same compound?
**A.** 33%

**Q.** And the “animals showing ulcers (chronic ulceration)” value (Distal colitis [2]; 14 days after challenge, initiation of treatment delayed until 2 days after DNBS challenge)?
**A.** 5 of 10

**Q.** And the severe ulceration (Distal colitis [2]; [6])?
**A.** 2 of 10

**Q.** What about the severe ulceration (Distal colitis [2]; [7]) of the same compound?
**A.** 1 of 10

**Q.** What about the “net colon-to-body weight ratio, ulcers and diarrhea” value (Distal colitis [2]; four subsequent studies) of the same compound?
**A.** variably reduced

**Q.** And the “Moderate acute inflammation, number of animals” value (“Moderate acute inflammation” for short) (Distal colitis [2])?
**A.** 6 animals

**Q.** And the “Severe acute inflammation, number of animals” value (from here on “Severe acute inflammation”) (Distal colitis [2])?
**A.** 4 animals

**Q.** What about the “Severe chronic inflammation, number of animals” value (“Severe chronic inflammation” below) (Distal colitis [2]) of the same compound?
**A.** 3 animals

**Q.** What about the “Adhesions between the colon and other organs” value (Distal colitis [2]) of the same compound?
**A.** absent

**Q.** And the diarrhea (Distal colitis [2])?
**A.** no diarrhea

**Q.** What about the “decrease of net colon-to-body weight ratio” value (Distal colitis [2]; s.c. 0.2 mg/day for 5 or 6 days, first dose 30 minutes post-DNBS, relative to controls) of the same compound?
**A.** 15%

**Q.** What about the “decrease of net colon-to-body weight ratio” value (Distal colitis [2]; s.c. 2.0 mg/day for 5 or 6 days, first dose 30 minutes post-DNBS, relative to controls) of the same compound?
**A.** 21%

**Q.** And the “enhancement of the DTH response” value ([4]; s.c. 2 mg/day daily for 8 days, first dose 24 hours before sensitization, last dose 24 hours prior to challenge)?
**A.** 23%

**Q.** What about the “reduction in the DTH response” value ([4]; s.c. 2 mg/day, administered 24 hours before challenge or at challenge) of the same compound?
**A.** 22-24%

**Q.** With `C[C@]12CC[C@H](O)C[C@@H]1CC[C@@H]1[C@@H]2CC[C@]2(C)C(=O)[C@H](Br)C[C@@H]12` [BrEA, 16α-bromo-3β-hydroxy-5α-androstane-17-one] as the compound, how does the “frequency of moderate to severe lesions and their severity compared with negative control (vehicle) and reference control” value (Distal colitis [1]) read?
**A.** appeared to be similar

**Q.** And the “effect on EAE” value ([3]; 3.0 mg s.c. daily for 33 days)?
**A.** not significant

**Q.** What about the “decrease of net colon-to-body weight ratio” value (Distal colitis [2]; s.c. 100 mg/mL formulation, relative to controls) of the same compound?
**A.** 21%

**Q.** Which differential ear thickness [4] does the source give for `O=P1(N(CCCl)CCCl)NCCCO1` (centres unmarked) [cyclophosphamide, reference compound] here?
**A.** 0.092 mm

**Q.** `C[C@]12CC[C@H](O)CC1=CC[C@@H]1[C@@H]2CC[C@]2(C)C(=O)CC[C@@H]12` [dehydroepiandrosterone, reference compound] was tested. Which “frequency of moderate to severe lesions and their severity compared with negative control (vehicle) and reference control” value (Distal colitis [1]) did it give?
**A.** appeared to be similar

**Q.** What about the severe ulceration (Distal colitis [2]; [6]) of the same compound?
**A.** 10 of 10

**Q.** And the severe ulceration (Distal colitis [2]; [7])?
**A.** 0 of 10

**Q.** What about the “Moderate acute inflammation” value (Distal colitis [2]) of the same compound?
**A.** 0 animals

**Q.** And the “Severe acute inflammation” value (Distal colitis [2])?
**A.** 10 animals

**Q.** And the “Severe chronic inflammation” value (Distal colitis [2])?
**A.** 3 animals

**Q.** And the “decrease of net colon-to-body weight ratio” value (Distal colitis [2]; [5])?
**A.** 3%

**Q.** With `C[C@@H]1C[C@H]2[C@@H]3CCC4=CC(=O)C=C[C@]4(C)[C@@]3(F)[C@@H](O)C[C@]2(C)[C@@]1(O)C(=O)CO` [dexamethasone, reference compound] as the compound, how does the differential ear thickness [4] read?
**A.** 0.144 mm

**Q.** How did the “change in net colon-to-body weight (BW) ratio” value (Distal colitis [2]; PO 30 mg/mL, 10 mL/kg/day once a day for 7 days, relative to EE-1 treated group) turn out when `O=C(O)c1cc(/N=N/c2ccc(S(=O)(=O)Nc3ccccn3)cc2)ccc1O` [sulfasalazine, reference compound] was run?
**A.** -33%

**Q.** And the severe ulceration (Distal colitis [2]; [6])?
**A.** 3 of 10

**Q.** What about the severe ulceration (Distal colitis [2]; [7]) of the same compound?
**A.** 4 of 10

**Q.** And the “Moderate acute inflammation” value (Distal colitis [2])?
**A.** 6 animals

**Q.** What about the “Severe acute inflammation” value (Distal colitis [2]) of the same compound?
**A.** 3 animals

**Q.** And the “Severe chronic inflammation” value (Distal colitis [2])?
**A.** 2 animals

**Q.** What about the “Adhesions between the colon and other organs” value (Distal colitis [2]) of the same compound?
**A.** no animals

**Q.** What about the Colonic ulceration (Distal colitis [2]) of the same compound?
**A.** no animals

**Q.** What about the diarrhea (Distal colitis [2]) of the same compound?
**A.** all animals
